# Test results published in patent US5036097A, “Phenylbutyl nitrone compositions and methods for prevention of gastric ulceration” (Oklahoma Medical Research Foundation, priority 1990, dated 1991).
# What was measured:
# [1] = tested on: Xanthine dehydrogenase (XDH) and oxidase (XO); experiment: gastric xanthine dehydrogenase and oxidase activity; type: in vivo, rat; settings: whole stomach, piroxicam treated
# Description: MEASUREMENT OF GASTRIC XANTHINE OXIDASE ACTIVITY. Xanthine dehydrogenase (XDH) and oxidase (XO) activities are measured in whole stomach from piroxicam-treated and vehicle-treated rats, using methods reported by Parks, et. al. […]. 254 (Gastrointest Liver Physiol 17): […]-[…] (1988). The artifactual conversion of XDH to XO is minimized by quickly removing stomachs from rats that were anesthetized with 50 mg/kg sodium pentobarbital and still breathing spontaneously. After gastrectomy, the rats are euthanized by cutting the abdominal aorta. Stomachs are quickly rinsed in an ice cold homogenizing buffer consisting of 50 mM potassium phosphate buffer, pH 7.0, containing 10 mM dithiothreitol (DTT), 1 mM phenylmethylsulfonyl fluoride (PMSF) and 0.1 mM EDTA. The stomach is then immediately immersed in liquid nitrogen and ground to a fine powder under liquid nitrogen using a mortar and pestle. About 0.5 g of frozen powder is added to 5 ml of homogenizing buffer and centrifuged 40,000 g for 30 min. The supernatant is decanted and microfuged for an additional 10 min. […] To increase reaction rates activity was measured at 30 rather than 25° C. […] XO is assayed in the absence in NAD+, while XDH+XO activity is measured in the presence of 500 μM NAD+. […] The extent of XDH conversion (% XO) is calculated from XO activity divided by XDH+XO activity.
# [2] = tested on: mitochondrial respiration; experiment: generation of O2- by mitochondrial respiration; type: biochemical, rat
# gastric ulceration = settings: rats and mice; cited from earlier work
smiles,measurement,setting,value
CN1C(C(=O)Nc2ccccn2)=C(O)c2ccccc2S1(=O)=O [piroxicam],XO as % of total XDH+XO activity,[1],45±3%
same,total XDH+XO activity,[1]; vehicle 31.6±2.45 mU/g,30.5±1.6 mU/g
same,generation of O2- by mitochondrial respiration,[2],did not increase generation of O2 -
same,ulcerogenicity,gastric ulceration,highly ulcerogenic
